Laboratory results: patent publication US20140302009A1, “Medicinal Agent for Prevention or Treatment of Diseases Associated with Intraocular Neovascularization and/or Intraocular Vascular Hyperpermeability” (Sanwa Kagaku Kenkyusho Co., Ltd., priority 2011, published 2014)

Tests used:
[1] = tested on: choroidal neovascularization (CNV); assay: Mouse model of choroidal neovascularization (CNV) induced by laser irradiation; CNV volume at 7 days; assay type: in vivo; details: 7 days after laser irradiation; for CNV suppression rate: based on non-treated group
Experimental: In the CNV model, macrophages migrate by the initiation of an inflammation by laser irradiation, and as a result thereof, VEGF is produced, neovascular vessels are generated, and increased vascular permeability is observed.
The both eyes of a male C57BL/6J mice having a body weight of about 20 g (6-week old) were irradiated with laser (irradiated by 4 to 6 spots per one eye) to experimentally induce CNV. As mentioned below, the drugs were administered by an anti-VEGF antibody alone and ranirestat alone, respectively, or by a combination of the two drugs. […] As the anti-VEGF antibody, a mouse anti-VEGF antibody purchased from R&D Systems was used. The number of examples was five per a group, and the following four groups were set.
(a) Untreated group (b) 3 mg/kg ranirestat-administered group: 3 mg/kg of ranirestat was forcibly and orally administered once a day (3 mg/kg/day) (c) Anti-VEGF antibody-administered group: ing of an anti-VEGF antibody was administered by intravitreal injection (d) Combination use group: ing of an anti-VEGF antibody was administered by intravitreal injection+ranirestat was administered (3 mg/kg was forcibly and orally administered once a day (3 mg/kg/day))
Ranirestat was administered from the days of the laser irradiation (20 to 30 minutes after the irradiation) to 7 days after the irradiation. The anti-VEGF antibody was administered by intravitreal injection immediately after the laser irradiation. After completion of the laser irradiation, the mice were bred by general breeding for 7 days, and thereafter the eye balls were excised and the volume of CNV appeared in the choroid was measured. The induction and evaluation of CNV were conducted by the following procedures.
Each mouse was anesthetized by administering 0.30 mL of tribromoethanol to the abdominal cavity of the mouse, and a mydriatics and a local anesthesia were placed a drop of the eyes. Thereafter the both eyes of the mouse were irradiated with laser (wavelength: 532 nm, output: 200 mW, irradiation time: 100 ms, spot size: 100 μm) by 4 to 6 spots per one eye using a laser photocoagulation device (Lumenis). CNV appeared by the laser irradiation, and thereafter the CNV volume increased.
At 7 days after the laser irradiation, each mouse was euthanized under tribromoethanol anesthesia, and the left and right eye balls of the mouse were excised. […] The volume of CNV was measured by importing an image in the vicinity of CNV by a confocal laser microscope (Zeiss LSM5 Pascal) and using image analysis software (NIH Image J). […]
Ranirestat was administered from the day of the laser irradiation (20 to 30 minutes after the irradiation) to seven days after the irradiation. […] The CNV volume was measured in a similar manner to Experiment 1.

[2] = injected into the vitreous body of a human; package insert of ranibizumab; cited from earlier work

For O=C1C[C@@]2(C(=O)N1)C(=O)N(Cc1ccc(Br)cc1F)C(=O)c1cccn12 [ranirestat, (3R)-2′-(4-bromo-2-fluorobenzyl)spiro[pyrrolidine-3,4′(1′H)pyrrolo[1,2-a]pyrazine]-1′,2,3′,5(2′H)-tetrone], the CNV suppression rate ([1]; Experiment 1, male C57BL/6J mice, ranirestat 3 mg/kg/day oral, anti-VEGF antibody by intravitreal injection) was 18.3%, the “effect of suppressing the CNV volume as compared to the non-treated group” value ([1]; Experiment 1, ranirestat 3 mg/kg/day oral, anti-VEGF antibody intravitreal) was “an effect of suppressing the CNV volume was observed but there was no significant difference” and the CNV suppression rate ([1]; Experiment 2, ranirestat 10 mg/kg/day oral, anti-VEGF antibody 1 ng by intravitreal injection) was 39.3%. For the same compound, the “effect of suppressing the CNV volume as compared to the non-treated group” value ([1]; Experiment 2, ranirestat 10 mg/kg/day oral, anti-VEGF antibody 1 ng intravitreal) was “a significant effect of suppressing the CNV volume was observed”.

For “ranibizumab: typical anti-VEGF agent, used as intravitreal injection”, the elimination half-life [2] is given as 220 h.
